Test results from PubChem BioAssay (NCI).
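At the GI50, growth is halved. TGI is the concentration that stops growth completely.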

Columns and labels:
Assay in all cases: DTP human tumour cell line panel, 384-well format
786-0 renal = test system: 786-0 renal
A498 renal = test system: A498 renal
A549 NSCLC = test system: A549 NSCLC
ACHN renal = test system: ACHN renal
BT-549 breast = test system: BT-549 breast
CAKI-1 renal = test system: CAKI-1 renal
COLO 205 colon = test system: COLO 205 colon
DU-145 prostate = test system: DU-145 prostate
EKVX NSCLC = test system: EKVX NSCLC
HCT-116 colon = test system: HCT-116 colon
HCT-15 colon = test system: HCT-15 colon
HL-60(TB) leukemia = test system: HL-60(TB) leukemia
HOP-62 NSCLC = test system: HOP-62 NSCLC
HOP-92 NSCLC = test system: HOP-92 NSCLC
HS 578T breast = test system: HS 578T breast
HT29 colon = test system: HT29 colon
IGROV1 ovarian = test system: IGROV1 ovarian
K-562 leukemia = test system: K-562 leukemia
KM12 colon = test system: KM12 colon
M14 melanoma = test system: M14 melanoma
MALME-3M melanoma = test system: MALME-3M melanoma
MCF7 breast = test system: MCF7 breast
MDA-MB-231 breast = test system: MDA-MB-231 breast
MDA-MB-435 melanoma = test system: MDA-MB-435 melanoma
MDA-MB-468 breast = test system: MDA-MB-468 breast
MOLT-4 leukemia = test system: MOLT-4 leukemia
NCI-H226 lung = test system: NCI-H226 lung
NCI-H23 lung = test system: NCI-H23 lung
NCI-H322M lung = test system: NCI-H322M lung
NCI-H460 NSCLC = test system: NCI-H460 NSCLC
NCI-H522 lung = test system: NCI-H522 lung
OVCAR-3 ovarian = test system: OVCAR-3 ovarian
OVCAR-4 ovarian = test system: OVCAR-4 ovarian
OVCAR-5 ovarian = test system: OVCAR-5 ovarian
OVCAR-8 ovarian = test system: OVCAR-8 ovarian
PC-3 prostate = test system: PC-3 prostate
RXF 393 renal = test system: RXF 393 renal
SF-268 CNS = test system: SF-268 CNS
SF-295 CNS = test system: SF-295 CNS
SF-539 CNS = test system: SF-539 CNS
SK-MEL-2 melanoma = test system: SK-MEL-2 melanoma
SK-MEL-28 melanoma = test system: SK-MEL-28 melanoma
SK-MEL-5 melanoma = test system: SK-MEL-5 melanoma
SK-OV-3 ovarian = test system: SK-OV-3 ovarian
SN12C renal = test system: SN12C renal
SNB-19 CNS = test system: SNB-19 CNS
SNB-75 CNS = test system: SNB-75 CNS
SR leukemia = test system: SR leukemia
SW-620 colon = test system: SW-620 colon
T-47D breast = test system: T-47D breast
TK-10 renal = test system: TK-10 renal
U251 glioblastoma = test system: U251 glioblastoma
UACC-257 melanoma = test system: UACC-257 melanoma
UACC-62 melanoma = test system: UACC-62 melanoma
UO-31 renal = test system: UO-31 renal

In the case of `N#Cc1ncc(N2C(=O)C3(CCC3)N(c3ccc(OC4CCNCC4)nc3)C2=S)cc1C(F)(F)F`, the GI50 ([…]-0 renal) is reported as 12 µM, the TGI (786-0 renal) is reported as 24.4 µM and the GI50 (A498 renal) is reported as 10.8 µM. It also gave a TGI (A498 renal) of 22.7 µM, a GI50 (A549 NSCLC) of 16.7 µM and a TGI (A549 NSCLC) of 30.5 µM. For the same molecule, the GI50 (ACHN renal) was 15.3 µM, the TGI (ACHN renal) was 28.7 µM and the GI50 (BT-549 breast) was 11.1 µM. For the same molecule, the TGI (BT-549 breast) was 23.1 µM, the GI50 (CAKI-1 renal) was 5.96 µM and the TGI (CAKI-1 renal) was 18.3 µM. The GI50 (COLO 205 colon) was 15.1 µM, the TGI (COLO 205 colon) was 28.4 µM and the GI50 (DU-145 prostate) was 14.5 µM. The TGI (DU-145 prostate) was 27.9 µM, the GI50 (EKVX NSCLC) was 10.2 µM and the TGI (EKVX NSCLC) was 22 µM. For the same molecule, the GI50 (HCT-116 colon) was 8.22 µM, the TGI (HCT-116 colon) was 20.7 µM and the GI50 (HCT-15 colon) was 5.19 µM. The TGI (HCT-15 colon) was 16.6 µM, the GI50 (HL-60(TB) leukemia) was 3.75 µM and the TGI (HL-60(TB) leukemia) was 15.8 µM. For the same molecule, the GI50 (HOP-62 NSCLC) was 20.9 µM, the TGI (HOP-62 NSCLC) was 35.3 µM and the GI50 (HOP-92 NSCLC) was 12.7 µM. For the same molecule, the TGI (HOP-92 NSCLC) was 25.4 µM, the GI50 (HS 578T breast) was 11.5 µM and the TGI (HS 578T breast) was 23.6 µM. For the same molecule, the GI50 (HT29 colon) was 2.88 µM, the TGI (HT29 colon) was 8.52 µM and the GI50 (IGROV1 ovarian) was 14.4 µM. For the same molecule, the TGI (IGROV1 ovarian) was 27.7 µM, the GI50 (K-562 leukemia) was 4.27 µM and the TGI (K-562 leukemia) was 16.1 µM. For the same molecule, the GI50 (KM12 colon) was 17.1 µM, the TGI (KM12 colon) was 30.9 µM and the GI50 (M14 melanoma) was 3 µM. The TGI (M14 melanoma) was 8.44 µM, the GI50 (MALME-3M melanoma) was 2.68 µM and the TGI (MALME-3M melanoma) was 6.23 µM. For the same molecule, the GI50 (MCF7 breast) was 4.76 µM, the TGI (MCF7 breast) was 16.6 µM and the GI50 (MDA-MB-231 breast) was 16.1 µM. The TGI (MDA-MB-231 breast) was 29.6 µM, the GI50 (MDA-MB-435 melanoma) was 13.4 µM and the TGI (MDA-MB-435 melanoma) was 26.3 µM. It also gave a GI50 (MDA-MB-468 breast) of 10.6 µM, a TGI (MDA-MB-468 breast) of 22.4 µM and a GI50 (MOLT-4 leukemia) of 10.1 µM. The TGI (MOLT-4 leukemia) was 21.7 µM, the GI50 (NCI-H226 lung) was 8.62 µM and the TGI (NCI-H226 lung) was 20.7 µM. The GI50 (NCI-H23 lung) was 11 µM, the TGI (NCI-H23 lung) was 23 µM and the GI50 (NCI-H322M lung) was 17.9 µM. The TGI (NCI-H322M lung) was 32.5 µM, the GI50 (NCI-H460 NSCLC) was 11.2 µM and the TGI (NCI-H460 NSCLC) was 23.4 µM. The GI50 (NCI-H522 lung) was 17.5 µM, the TGI (NCI-H522 lung) was 31.3 µM and the GI50 (OVCAR-3 ovarian) was 14 µM. For the same molecule, the TGI (OVCAR-3 ovarian) was 27.1 µM, the GI50 (OVCAR-4 ovarian) was 13.6 µM and the TGI (OVCAR-4 ovarian) was 26.5 µM. For the same molecule, the GI50 (OVCAR-5 ovarian) was 13.8 µM, the TGI (OVCAR-5 ovarian) was 27 µM and the GI50 (OVCAR-8 ovarian) was 14.5 µM. For the same molecule, the TGI (OVCAR-8 ovarian) was 27.7 µM, the GI50 (PC-3 prostate) was 14.4 µM and the TGI (PC-3 prostate) was 27.5 µM. The GI50 (RXF 393 renal) was 2.63 µM, the TGI (RXF 393 renal) was 7.32 µM and the GI50 (SF-268 CNS) was 13.4 µM. The TGI (SF-268 CNS) was 26.3 µM, the GI50 (SF-295 CNS) was 18.6 µM and the TGI (SF-295 CNS) was 32.6 µM. It also gave a GI50 (SF-539 CNS) of 12.4 µM, a TGI (SF-539 CNS) of 24.9 µM and a GI50 (SK-MEL-2 melanoma) of 5.98 µM. For the same molecule, the TGI (SK-MEL-2 melanoma) was 17.9 µM, the GI50 (SK-MEL-28 melanoma) was 2.32 µM and the TGI (SK-MEL-28 melanoma) was 5.21 µM. It also gave a GI50 (SK-MEL-5 melanoma) of 11.8 µM, a TGI (SK-MEL-5 melanoma) of 24.1 µM and a GI50 (SK-OV-3 ovarian) of 18.1 µM. It also gave a TGI (SK-OV-3 ovarian) of 32.2 µM, a GI50 (SN12C renal) of 15.5 µM and a TGI (SN12C renal) of 28.9 µM. For the same molecule, the GI50 (SNB-19 CNS) was 19.1 µM, the TGI (SNB-19 CNS) was 35.3 µM and the GI50 (SNB-75 CNS) was 14.5 µM. It also gave a TGI (SNB-75 CNS) of 27.7 µM, a GI50 (SR leukemia) of 1.9 µM and a TGI (SR leukemia) of 3.91 µM. The GI50 (SW-620 colon) was 14.5 µM, the TGI (SW-620 colon) was 27.8 µM and the GI50 (T-47D breast) was 8.96 µM. It also gave a TGI (T-47D breast) of 21.1 µM, a GI50 (TK-10 renal) of 7.64 µM and a TGI (TK-10 renal) of 20.1 µM. The GI50 (U251 glioblastoma) was 17.2 µM, the TGI (U251 glioblastoma) was 31 µM and the GI50 (UACC-257 melanoma) was 1.99 µM. It also gave a TGI (UACC-257 melanoma) of 3.79 µM, a GI50 (UACC-62 melanoma) of 2.03 µM and a TGI (UACC-62 melanoma) of 3.93 µM. It also gave a GI50 (UO-31 renal) of 14.7 µM and a TGI (UO-31 renal) of 27.9 µM.
